Assay results as given in patent US20250008959A1, “HERBICIDES AND USE THEREOF” (Projini Agchem LTD, priority 2021, published 2025).
pIC50, pKd: −log10 of the molar value. Read-outs that look alike come from different tables or passages of the source.

Columns and labels:
[1] = target: T1, OASS-SAT complex (AtOASS with SAT-derived peptide) (Arabidopsis thaliana, UniProt P47998); assay: Fluorescence polarization (FP) competition with FITC-labeled SAT-derived peptide bound to OASS; format: binding; details: competition with FITC-SAT peptide 200 nM, OASS 2.2 μM; for pIC50: single site inhibition model
T1 construct: GST (N, cleaved yes); made in house; host or cells: E. coli Rosetta (DE3)
T1 sequence (P47998 whole entry, one chain of several): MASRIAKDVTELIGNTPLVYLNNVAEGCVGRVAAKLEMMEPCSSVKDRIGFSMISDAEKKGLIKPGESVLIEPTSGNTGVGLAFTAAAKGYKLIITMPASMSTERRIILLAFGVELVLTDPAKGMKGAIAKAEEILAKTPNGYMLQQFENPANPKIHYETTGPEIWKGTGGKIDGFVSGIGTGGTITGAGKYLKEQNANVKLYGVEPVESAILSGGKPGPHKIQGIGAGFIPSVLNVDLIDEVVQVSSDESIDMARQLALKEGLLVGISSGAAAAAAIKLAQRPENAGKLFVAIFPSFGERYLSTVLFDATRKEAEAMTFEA
Procedure: Molecules were also tested for their ability to compete with the OASS binding to the SAT-derived peptide via a fluorescence polarization (FP) competition assay wherein the N-terminus labeled peptide was incubated with the AtOASS (see Examples section below). High FP values correspond to the peptide-bound state (low molecule concentrations) and low FP values correspond to the peptide-free state (low FP values). To extract the IC50, the FP data were fitted to a single site inhibition model in PRISM by GraphPad Software. The corresponding IC50 values were extracted, whereas low IC50 values correspond to molecule that better competes with the peptide binding to AtOASS. Fluorescence polarization (FP) measurements were made on samples arrayed in 96-well plates by using BioTek H1 Synergy instrument equipped with FP module. […] The peptide in a concentration of 200 nM was incubated with OASS at a concentration of 2.2 μM in each well. Variable concentrations of each molecule starting from 100 μM down to 0.048 μM were added to evaluate the ability of each molecule to compete off the FITC labeled peptide bound to OASS. Fluorescence experiments were executed with an Em/Exc wavelengths of 480/520 nm. All measurements were done in triplicate. Experimental polarization data from simple and competitive binding experiments were fitted using GraphPad Prism, with error bars representing SD. Molecules were also tested for their ability to compete with the OASS binding to the SAT-derived peptide via a fluorescence polarization (FP) competition assay. The N-terminus labeled peptide was incubated with the AtOASS in each of the wells in a 96-well plate. Various concentrations of the molecules were added and the FP values were recorded. High FP values correspond to the peptide-bound state (low molecule concentrations) and low FP values correspond to the peptide-free state (low FP values). To extract the IC50, the FP data were fitted to a single site inhibition model in graphpad prism. The corresponding IC50 values were extracted. Low IC50 values correspond to molecule that better competes with the peptide binding to AtOASS.

Arabidopsis thaliana [2] = assay: Root elongation in plates (in planta root elongation assay); format: in vivo; details: 168 h, A. thaliana on MS medium plates, 7 days, read-out: Root-growth inhibition %
Procedure: 6-well plates were prepared in a biological hood with sterile half Murashige and Skoog mineral medium (MS; Duchefa, Haarlem, Netherlands) containing 1% sucrose (w/v), pH 5.8. Tested molecules were dissolved in 50 mM DMSO and diluted to various concentrations 1,000-fold greater than the final desired concentration the MS medium maintaining a final concentration of 0.1% DMSO. MS medium with 0.1% DMSO was used as a negative control. After 7 days the plates were scanned and the root length was calculated using the imageJ software. […] Further sterilization was done by washing the seeds with 50% hypochlorite and 0.2% Triton x-100 for 10 minutes followed by five cycles of washing with sterile water. Six seeds were placed in each well, and the plates were covered and sealed with parafilm. Plates were placed vertically at 4° C. for two days and then transferred to a growth chamber for seven days (22-24° C.) at day/light cycles of 16/8 hours. Following the in vitro evaluation, selected molecules were tested for their ability to inhibit A. thaliana root elongation on agar plates. Seeds were plated on medium containing the molecules dissolved in the indicated concentrations and root length was measured after 6 or 7 days when the root in the non-treated plate reached the end of the well.

[3] = target: T2, AtOASS (O-acetyl serine sulfhydrylase from Arabidopsis thaliana) (Arabidopsis thaliana, UniProt P47998); assay: Isothermal titration calorimetry (ITC) binding to OASS; details: OASS titrated into compound in ITC cell; single binding model
T2 construct: GST (N, cleaved yes); made in house; host or cells: E. coli Rosetta (DE3)
T2 sequence (P47998 whole entry): as the sequence (P47998 whole entry, one chain of several) above
Source text: To evaluate the ability of the molecules to bind AtOASS (O-acetyl serine sulfhydrylase from Arabidopsis thaliana), the protein was placed in the ITC syringe and was titrated with the molecules that were placed in the ITC cell (see Examples section below). The direct dissociation binding constant (Kd) was then extracted from the binding curve using a single binding model, wherein a low Kd value corresponds to a stronger binding affinity.
To evaluate the binding of the small molecules to the enzyme OASS, the purified protein was placed in a 6-8 MWCO dialysis bag in 30 mM phosphate buffer, 30 mM NaCl, 1 mM TCEP, and 5% dimethyl sulfoxide. Sequential buffer exchange dialyses were executed for 12 hours each at 4° C. until dilution of >10,000 was achieved. Before the execution of the ITC binding experiment, the OASS was placed in the ITC syringe at a concentration of 400 μM and each of the small molecules was dissolved in the same dialysis buffer to a final concentration of 40 μM in the ITC cell. ITC experiments were conducted by titrating the OASS to the compounds in the cell. The ITC binding constant was evaluated using the build-in analysis software.
The designed de-novo herbicidal compounds were synthesized and evaluated for their in vitro and in planta activity. After dissolving the molecules to a stock of 50 mM in DMSO, binding and competition with the SAT-derived peptides were evaluated using ITC and FP. ITC measures the direct heat change occurring due to the interaction of a pair of molecules. ITC has certain advantages, such as the capability to detect a relatively broad range of binding affinities, being a label-free method, and providing a wide set of interaction parameters, such as affinity, stoichiometry, enthalpy, and entropy of binding. To evaluate the ability of the molecules to bind AtOASS, the protein was placed in the ITC syringe and was titrated with the molecules that were placed in the ITC cell. The direct dissociation binding constant (Kd) was then extracted from the binding curve using a single binding model. Two consecutive experiments were combined using the built in ITC module to enable better quantification. A low Kd value corresponds to a stronger binding affinity.

Trifolium alexandrium = assay: Pre-emergence assay in pots; format: in vivo; details: pots sprayed with 2 ml, 5 mM, monitored 21 days
Procedure: (§1) 7×7 cm pots were prepared with 20% soil and 80% sand. Trifolium alexandrium (16 seeds), Lolium rigidum (25 seeds), Solanum nigrum (25 seeds), Amaranthus palmeri (40 seeds) or Sinapis arvensis (12 seeds) were sowed and 2 cm of strained sand was used to cover the seeds. The pots were placed in the growth room under a lighting regime of 16 hours of light and 8 hours in the dark at 23° C. The day after (except for the Solanum and Amaranthus 4-5 days after), the pots were sprayed in a chemical hood at a 45° angle with 2 ml spray solution containing 1:10 acetone or phosphate buffer dissolved active ingredient in tap water to a final concentration of 5 mM. Every 2-3 days the pots were irrigated with tap water.
(§2) Pre-emergence herbicidal activity was determined by monitoring plant growth in pots. Molecules were dissolved at the indicated concentrations below and volume of 2 ml was sprayed onto the soil, and plant growth was monitored for 21 days.

Amaranthus palmeri = assay: Pre-emergence assay in pots; format: in vivo; details: pots sprayed with 2 ml, 5 mM, monitored 21 days
Procedure: as §1, §2

Sinapis arvensis = assay: Pre-emergence assay in pots; format: in vivo; details: pots sprayed with 2 ml, 5 mM, monitored 21 days
Procedure: as §1, §2

Arabidopsis thaliana [4] = assay: L-cysteine recovery root elongation assay; format: in vivo; details: for pIC50: Arabidopsis thaliana, read-out: IC50 of A. thaliana growth inhibition
Procedure: For the L-cysteine recovery root elongation assay, 6-well plates were prepared in a biological hood with sterile half Murashige and Skoog mineral medium (MS; Duchefa, Haarlem, Netherlands) containing 1% sucrose (w/v), pH 5.8. A stock of 10 mM L-cysteine in DDW was prepared and diluted to a final concentration of 0.03 mM into the MS medium in the presence of 25 to 1.56 μM of PJL 109. The MS medium maintained a final concentration of 0.1% DMSO. MS medium with 0.1% DMSO and 0.03 mM L-cysteine was used as a negative control. After 7 days the plates were scanned and the root length was calculated using the imageJ software.
Arabidopsis thaliana seeds were washed with 70% ethanol for 1 minute and then with sterile water. Further sterilization was done by washing the seeds with 50% hypochlorite and 0.2% Triton x-100 for 10 minutes followed by five cycles of washing with sterile water. Six seeds were placed in each well, and the plates were covered and sealed with parafilm. Plates were placed vertically at 4° C. for two days and then transferred to a growth chamber for seven days (22-24° C.) at day/light cycles of 16/8 hours.

Solanum nigrum = assay: Pre-emergence assay in pots; format: in vivo; details: pots sprayed with 2 ml, 5 mM, monitored 21 days
Procedure: as §1, §2

Lolium rigidum = assay: Pre-emergence assay in pots; format: in vivo; details: pots sprayed with 2 ml, 5 mM, monitored 21 days
Procedure: as §1, §2

| SMILES | FP % inhibition [1] [%] | pIC50 [1] | inhibition at 50 µM (Arabidopsis thaliana [2]) [%] | pKd [3] | other results |
| --- | --- | --- | --- | --- | --- |
| COc1ccc(-c2csc(NC(=O)c3ccccc3-c3ccccc3C(=O)O)n2)cc1 [PJL-61] | 43 | 5.33 | 95 | 6.40 | Pre-emergence assay Germination inhibition on (%) (Trifolium alexandrium): 70%; Pre-emergence assay Growth inhibition on (%) (Trifolium alexandrium): 60%; Pre-emergence assay Germination inhibition on (%) (Amaranthus palmeri): 33%; Pre-emergence assay Growth inhibition on (%) (Amaranthus palmeri): 0% |
| COc1ccc(C(=O)O)c(NS(=O)(=O)c2cnc(-c3ccc(F)cc3)s2)c1 [PJL-79] | 18 | 4.26 | 97 | 5.15 | Pre-emergence assay Germination inhibition on (%) (Sinapis arvensis): 95%; Pre-emergence assay Growth inhibition on (%) (Sinapis arvensis): 90% |
| O=C(O)c1cc2c(c(S(=O)(=O)Nc3cccc(NC(=O)C4CC4)c3)c1)CCC2 [PJL-39] | 12 | 3.90 | 18 | 5.00 |  |
| O=C(O)c1ccccc1-c1ccccc1C(=O)Nc1cccc(-c2nc3ccccc3[nH]2)c1 [PJL-65] | 38 | 5.40 | 0 | 5.75 |  |
| O=C(O)c1cc2c(c(S(=O)(=O)Nc3ccc(OCc4ccccn4)c(Cl)c3)c1)CCC2 [PJS-39] | 14 | 4.14 | 2.3 | 5.12 |  |
| O=C(O)c1ccccc1-c1ccccc1C(=O)Nc1nc(-c2ccc(Cl)cc2Cl)cs1 [PJL-109] | 48 | 5.27 | 89 | 7.15 | effect of added cysteine on the inhibition by the compound (Arabidopsis thaliana [4]; 0.03 mM L-cysteine on agar plates, dose-response, result in words): partially reverses the germination inhibition effect; pIC50 (Arabidopsis thaliana [4]; 0 mM L-cysteine (no external addition of cysteine)): 5.77; pIC50 (Arabidopsis thaliana [4]; 0.03 mM L-cysteine in the medium): 5.31; Pre-emergence assay Germination inhibition on (%) (Solanum nigrum): 63%; Pre-emergence assay Growth inhibition on (%) (Solanum nigrum): 0% |
| O=C(O)c1ccccc1-c1ccccc1C(=O)Nc1cccc(NNc2nccs2)c1 [PJL-68] | 32 | 5.00 | 0 | 5.47 |  |
| O=C(O)c1cc(F)ccc1NS(=O)(=O)c1cnc(-c2ccccc2)s1 [PJL-47] | 16 | 4.17 | 88 | 5.22 | Pre-emergence assay Germination inhibition on (%) (Amaranthus palmeri): 66%; Pre-emergence assay Growth inhibition on (%) (Amaranthus palmeri): 20% |
| O=C(O)c1ccccc1-c1ccccc1C(=O)Nc1cccc(O)c1 [PJL-64] | 23 | 4.89 | 23 | 5.47 |  |
| COc1ccc(-c2csc(NC(=O)c3ccccc3-c3ccccc3C(=O)O)n2)c(Cl)c1 [PJL-116] | 41 | 5.44 | 92 | 6.30 | Pre-emergence assay Germination inhibition on (%) (Trifolium alexandrium): 75%; Pre-emergence assay Growth inhibition on (%) (Trifolium alexandrium): 80% |
| O=C(O)c1ccccc1-c1ocnc1C(=O)Nc1nc(-c2ccc(Cl)cc2Cl)cs1 [PJL-117] | 10 | 3.61 | 100 |  | Pre-emergence assay Germination inhibition on (%) (Sinapis arvensis): 90%; Pre-emergence assay Growth inhibition on (%) (Sinapis arvensis): 80%; Pre-emergence assay Germination inhibition on (%) (Lolium rigidum): 0%; Pre-emergence assay Growth inhibition on (%) (Lolium rigidum): 60% |
| O=C(O)c1cc2c(c(S(=O)(=O)Nc3cccc(-n4cccn4)c3)c1)CCC2 [PJL-76] | 16 |  | 0 | 4.74 |  |
| O=C(Nc1nccs1)c1cccc(NC(=O)c2ccccc2-c2ccccc2C(=O)O)c1 [PJL-62] | 31 | 5.17 | 0 | 5.70 |  |
| COc1ccc(NC(=O)c2ccc(NS(=O)(=O)c3cc(C(=O)O)ccc3OC)cc2)cc1 [PJS-31] | 11 | 3.65 | 0 | 5.25 |  |
